Results taken from US20050043315A1, “Aminopyrimidine compounds, processes for their preparation and pharmaceutical compositions containing them” (priority 2002, published 2005).

First: CC(C)n1nc(-c2c(OCCO)nc(N)nc2-c2ccccc2)ccc1=O [Example 86, 6-[2-Amino-4-(2-hydroxyethoxy)-6-phenyl-5-pyrimidinyl]-2-isopropyl-3(2H)-pyridazinone]
Second: CC(C)n1nc(-c2c(OCCF)nc(N)nc2-c2ccccc2)ccc1=O [Example 92, 6-[2-Amino-4-(2-fluoroethoxy)-6-phenyl-5-pyrimidinyl]-2-isopropyl-3(2H)-pyridazinone]
The melting point of the first is higher: 182 to 183 °C for the first, 129 to 130.5 °C for the second.

COCCOc1nc(N)nc(-c2ccccc2)c1-c1ccc(=O)n(C(C)C)n1 [Example 87, 6-[2-Amino-4-(2-methoxyethoxy)-6-phenyl-5-pyrimidinyl]-2-isopropyl-3(2H)-pyridazinone] and CCCOc1nc(N)nc(-c2ccccc2)c1-c1ccc(=O)n(C(C)C)n1 [Example 91, 6-(2-amino-4-phenyl-6-propoxy-5-pyrimidinyl)-2-isopropyl-3(2H)-pyridazinone] cannot be ordered by melting point: 128 to 130 °C for the first, 127.5 to 129 °C for the second.

First: CC(C)n1nc(-c2c(OCCN(C)C)nc(N)nc2-c2ccccc2)ccc1=O [Example 88, 6-{2-Amino-4-[2-(dimethylamino)ethoxy]-6-phenyl-5-pyrimidinyl}-2-isopropyl-3(2H)-pyridazinone]
Second: CC(C)n1nc(-c2c(OCCN)nc(N)nc2-c2ccccc2)ccc1=O [Example 104, 6-[2-amino-4-(2-aminoethoxy)-6-phenyl-5-pyrimidinyl]-2-isopropyl-3(2H)-pyridazinone]
The melting point of the first is lower: 130 to 131.5 °C for the first, 213 to 216 °C for the second.

First: COC(=O)COc1nc(N)nc(-c2ccccc2)c1-c1ccc(=O)n(C(C)C)n1 [Example 89, methyl {[2-amino-5-(1-isopropyl-6-oxo-1,6-dihydro-3-pyridazinyl)-6-phenyl-4-pyrimidinyl]oxy}acetate]
Second: CNC(=O)COc1nc(N)nc(-c2ccccc2)c1-c1ccc(=O)n(C(C)C)n1 [Example 101, 2-{[2-amino-5-(1-isopropyl-6-oxo-1,6-dihydro-3-pyridazinyl)-6-phenyl-4-pyrimidinyl]oxy}-N-methylacetamide]
The melting point of the first is lower: 150 to 152.5 °C for the first, 204 to 205.5 °C for the second.

First: CC(C)n1nc(-c2c(OCCN3C(=O)c4ccccc4C3=O)nc(N)nc2-c2ccccc2)ccc1=O [Example 90, 2-(2-{[2-Amino-5-(1-isopropyl-6-oxo-1,6-dihydro-3-pyridazinyl)-6-phenyl-4-pyrimidinyl]oxy}-ethyl)-1H-isoindole-1,3(2H)-dione]
Second: CC(C)n1nc(-c2c(OCc3ccccc3)nc(N)nc2-c2ccccc2)ccc1=O [Example 93, 6-[2-amino-4-(benzyloxy)-6-phenyl-5-pyrimidinyl]-2-isopropyl-3(2H)-pyridazinone]
The melting point of the first is higher: 231.5 to 232.5 °C for the first, 162 to 163 °C for the second.

Compared with CC(C)n1nc(-c2c(OCc3ccccn3)nc(N)nc2-c2ccccc2)ccc1=O [Example 94, 6-[2-amino-4-phenyl-6-(2-pyridinylmethoxy)-5-pyrimidinyl]-2-isopropyl-3(2H)-pyridazinone], CC(C)n1nc(-c2c(NCc3ccccn3)nc(N)nc2-c2ccccc2)ccc1=O [Example 121, 6-{2-Amino-4-phenyl-6-[(2-pyridinylmethyl)amino]-5-pyrimidinyl}-2-isopropyl-3(2H)-pyridazinone] is higher in melting point: 177 to 178 °C for the first, 196 to 198 °C for the second.

First: CC(C)n1nc(-c2c(OC3CCCCC3)nc(N)nc2-c2ccccc2)ccc1=O [Example 96, 6-[2-Amino-4-(cyclohexyloxy)-6-phenyl-5-pyrimidinyl]-2-isopropyl-3(2H)-pyridazinone]
Second: CC(C)n1nc(-c2c(OC3CCOCC3)nc(N)nc2-c2ccccc2)ccc1=O [Example 97, 6-[2-Amino-4-phenyl-6-(tetrahydro-2H-pyran-4-yloxy)-5-pyrimidinyl]-2-isopropyl-3(2H)-pyridazinone]
The melting point of the first is lower: 173 to 175 °C for the first, 207 to 209 °C for the second.

Compared with CC(C)n1nc(-c2c(Oc3ccccc3)nc(N)nc2-c2ccccc2)ccc1=O [Example 98, 6-(2-Amino-4-phenoxy-6-phenyl-5-pyrimidinyl)-2-isopropyl-3(2H)-pyridazinone], CC(C)n1nc(-c2c(-c3ccccc3)nc(N)nc2N(C)Cc2ccccc2)ccc1=O [Example 120, 6-{2-amino-4-[benzyl(methyl)amino]-6-phenyl-5-pyrimidinyl}-2-isopropyl-3(2H)-pyridazinone] is lower in melting point: 218 to 221 °C for the first, 167 to 168 °C for the second.

First: CC(C)n1nc(-c2c(OCC(N)=O)nc(N)nc2-c2ccccc2)ccc1=O [Example 99, 2-{[2-amino-5-(1-isopropyl-6-oxo-1,6-dihydro-3-pyridazinyl)-6-phenyl-4-pyrimidinyl]oxy}acetamide]
Second: CC(C)n1nc(-c2c(OCC(=O)O)nc(N)nc2-c2ccccc2)ccc1=O [Example 100, {[2-amino-5-(1-isopropyl-6-oxo-1,6-dihydro-3-pyridazinyl)-6-phenyl-4-pyrimidinyl]oxy}acetic acid]
The melting point of the first is higher: 257 to 261 °C for the first, 215 to 217 °C for the second.

First: CC(C)n1nc(-c2c(OCC(=O)N(C)C)nc(N)nc2-c2ccccc2)ccc1=O [Example 102, 2-{[2-Amino-5-(1-isopropyl-6-oxo-1,6-dihydro-3-pyridazinyl)-6-phenyl-4-pyrimidinyl]oxy}-N,N-dimethylacetamide]
Second: CC(C)n1nc(-c2c(OCC(=O)NC3CC3)nc(N)nc2-c2ccccc2)ccc1=O [Example 103, 2-{[2-Amino-5-(1-isopropyl-6-oxo-1,6-dihydro-3-pyridazinyl)-6-phenyl-4-pyrimidinyl]oxy}-N-cyclopropylacetamide]
The melting point of the first is higher: 133 to 135.5 °C for the first, 87 to 92 °C for the second.

First: CC(C)n1nc(-c2c(N)nc(N)nc2-c2ccccc2)ccc1=O [Example 105, 6-(2,4-diamino-6-phenyl-5-pyrimidinyl)-2-isopropyl-3(2H)-pyridazinone]
Second: CNc1nc(N)nc(-c2ccccc2)c1-c1ccc(=O)n(C(C)C)n1 [Example 106, 6-[2-Amino-4-(methylamino)-6-phenyl-5-pyrimidinyl]-2-isopropyl-3(2H)-pyridazinone]
The melting point of the first is lower: 258 to 260 °C for the first, 268 to 270 °C for the second.

First: CC(C)n1nc(-c2c(-c3ccccc3)nc(N)nc2N(C)C)ccc1=O [Example 107, 6-[2-Amino-4-(dimethylamino)-6-phenyl-5-pyrimidinyl]-2-isopropyl-3(2H)-pyridazinone]
Second: CC(C)n1nc(-c2c(NCCN(C)C)nc(N)nc2-c2ccccc2)ccc1=O [Example 117, 6-(2-Amino-4-{[2-(dimethylamino)ethyl]amino}-6-phenyl-5-pyrimidinyl)-2-isopropyl-3(2H)-pyridazinone]
The melting point of the first is higher: 293 to 296 °C for the first, 164 to 165.5 °C for the second.

Compared with CCNc1nc(N)nc(-c2ccccc2)c1-c1ccc(=O)n(C(C)C)n1 [Example 108, 6-[2-Amino-4-(ethylamino)-6-phenyl-5-pyrimidinyl]-2-isopropyl-3(2H)-pyridazinone], CCCNc1nc(N)nc(-c2ccccc2)c1-c1ccc(=O)n(C(C)C)n1 [Example 109, 6-[2-Amino-4-phenyl-6-(propylamino)-5-pyrimidinyl]-2-isopropyl-3(2H)-pyridazinone] is higher in melting point: 208 to 209 °C for the first, 209 to 212 °C for the second.

First: CC(C)Nc1nc(N)nc(-c2ccccc2)c1-c1ccc(=O)n(C(C)C)n1 [Example 110, 6-[2-Amino-4-(isopropylamino)-6-phenyl-5-pyrimidinyl]-2-isopropyl-3(2H)-pyridazinone]
Second: CC(C)n1nc(-c2c(NC(C)(C)C)nc(N)nc2-c2ccccc2)ccc1=O [Example 113, 6-[2-Amino-4-(tert-butylamino)-6-phenyl-5-pyrimidinyl]-2-isopropyl-3(2H)-pyridazinone]
The melting point of the first is higher: 234 to 236 °C for the first, 202 to 204 °C for the second.

First: C=CCNc1nc(N)nc(-c2ccccc2)c1-c1ccc(=O)n(C(C)C)n1 [Example 111, 6-[4-(Allylamino)-2-amino-6-phenyl-5-pyrimidinyl]-2-isopropyl-3(2H)-pyridazinone]
Second: CC(C)n1nc(-c2c(NCCO)nc(N)nc2-c2ccccc2)ccc1=O [Example 114, 6-{2-amino-4-[(2-hydroxyethyl)amino]-6-phenyl-5-pyrimidinyl}-2-isopropyl-3(2H)-pyridazinone]
The melting point of the first is lower: 191.5 to 192.5 °C for the first, 221.5 to 223.5 °C for the second.

First: CC(C)n1nc(-c2c(NC3CC3)nc(N)nc2-c2ccccc2)ccc1=O [Example 112, 6-[2-Amino-4-(cyclopropylamino)-6-phenyl-5-pyrimidinyl]-2-isopropyl-3(2H)-pyridazinone]
Second: CC(C)n1nc(-c2c(NCCN)nc(N)nc2-c2ccccc2)ccc1=O [Example 116, 6-{2-Amino-4-[(2-aminoethyl)amino]-6-phenyl-5-pyrimidinyl}-2-isopropyl-3(2H)-pyridazinone]
The melting point of the first is higher: 237 to 239 °C for the first, 194 to 197 °C for the second.

Compared with COCCNc1nc(N)nc(-c2ccccc2)c1-c1ccc(=O)n(C(C)C)n1 [Example 115, 6-{2-amino-4-[(2-methoxyethyl)amino]-6-phenyl-5-pyrimidinyl}-2-isopropyl-3(2H)-pyridazinone], CC(C)n1nc(-c2c(NCC(N)=O)nc(N)nc2-c2ccccc2)ccc1=O [Example 118, 2-{(2-amino-5-(1-isopropyl-6-oxo-1,6-dihydro-3-pyridazinyl)-6-phenyl-4-pyrimidinyl]amino}acetamide] is higher in melting point: 168 to 170 °C for the first, 235 to 237.5 °C for the second.

Compared with CC(C)n1nc(-c2c(NCc3cccnc3)nc(N)nc2-c2ccccc2)ccc1=O [Example 122, 6-{2-Amino-4-phenyl-6-[(3-pyridinylmethyl)amino]-5-pyrimidinyl}-2-isopropyl-3(2H)-pyridazinone], CC(C)n1nc(-c2c(NCc3ccncc3)nc(N)nc2-c2ccccc2)ccc1=O [Example 123, 6-{2-Amino-4-phenyl-6-[(4-pyridinylmethyl)amino]-5-pyrimidinyl}-2-isopropyl-3(2H)-pyridazinone] is higher in melting point: 215 to 216.5 °C for the first, 221.5 to 222.5 °C for the second.

For CC(C)n1nc(-c2c(NCc3ccco3)nc(N)nc2-c2ccccc2)ccc1=O [Example 124, 6-{2-Amino-4-[(2-furylmethyl)amino]-6-phenyl-5-pyrimidinyl}-2-isopropyl-3(2H)-pyridazinone], the melting point was 213 to 214 °C.

CC(C)n1nc(-c2c(-c3ccccc3)nc(N)nc2N2CCCC2)ccc1=O [Example 125, 6-[2-Amino-4-phenyl-6-(1-pyrrolidinyl)-5-pyrimidinyl]-2-isopropyl-3(2H)-pyridazinone] showed a melting point greater than 300 °C.
